Experiment [1] concerns platelets from MEG-01 cells. The experiment in a line: Activation and function of platelets produced by treated MEG-01 cultures (flow cytometry, clot SEM). The settings on record: for function of platelets obtained in culture: platelets released from treated MEG-01 cells. It counts as cell-based, human. The protocol:
Platelets were also separated from the megakaryocytic cells, by differential centrifugation (Zunino et al., 2001), considering the big size difference between these cells (1-5 μm for platelets and 35-150 μm for megakaryocytic cell line MEG-01) and analyzed separately. Suspension cells were centrifuged first at 100 g to 150 g for 15 minutes, and then the platelets-rich supernatant was kept and centrifuged again at 800 g for 15 minutes. The platelets pellet was resuspended in the appropriate buffer (Tyrode's buffer, pH 7.4), for analysis. For impeding artefactual aggregation of platelets in the control, EDTA and RGDS or RGD were added in the cell suspension from the beginning of the centrifugations. Therefore the control was the inactivated platelets. Special caution was used in order to avoid as much as possible artefactual activation of the control, therefore centrifugations were done at room temperature, no unnecessary washing, no vortexing, gentle removal of supernatants.
Monoclonal antibody PAC-1 recognizes an epitope on the glycoprotein αIIbβ3 of activated platelets. PAC-1 binds only to the activated platelets, and so is very specific. PAC-1 will not bind EDTA and RGD or RGDS treated platelets (Shattil et al., 1987; Shattil et al., 1985; Shattil and Leavitt, 2001).
10 mg/ml RGD or RGDS and 100 mM EDTA were used for negative control (inactivated) on resting platelets.
PAC-1-FITC was purchased from Becton Dickinson Immunocytometry Systems, San Jose, Calif., USA. 20 μl PAC-1-FITC were used for 5 μl fresh platelets suspension, in Tyrode's buffer with CaCl2, as recommended for whole blood by the provider. Different agonists were used, like 1 μg/ml TRAP, 100 nM PMA, as final concentrations (Chen et al., 2004). Activation time was 10-15 minutes.
BD Biosciences protocol for staining was used, with incubation for 30 minutes, in dark, at room temperature.
CD62P is a monoclonal antibody that recognizes an epitope on P-Selectin. P-Selectin is exposed as response to agonist and is a specific sign of platelet activation. 20 μl CD62P-FITC were used for 5 μl fresh platelets suspension, in Tyrode's buffer with CaCl2. Different agonists were used, like 1 μg/ml TRAP, 100 nM PMA or 20 μM ADP as final concentrations. Activation time was 10 minutes. The staining volume was chosen by titration, small volumes giving better staining. Incubation was done in dark at room temperature for 30 minutes, as recommended by BD Biosciences. These assays were done on fresh platelets.
Human fibrinogen was conjugated with Alexa Fluor 488 fluorochrome (F-13191, from Molecular Probes, OR, USA) following recommended Molecular Probes procedure, with the modification that instead the column step, a dialysis step was chosen, in order to obtain a better attachment of dye molecules to fibrinogen. Final concentration of fibrinogen conjugated Alexa Fluor 488 was determined spectrophotometrically. For platelet activation, different agonists were used, like 1 μg/ml TRAP, 100 nM PMA or 20 μM ADP as final concentrations. Activation time was 10-15 minutes. 300 nM labeled fibrinogen was incubated as a final concentration with platelets suspension for 30 minutes, in dark, at room temperature. Fresh platelets were used.
Platelets expose PS when activated and undergo shape change. They will stain positive for AnnexinV (a marker of PS exposure) and will move up on the SSC, FSC as a result of the shape change. For this assay, AnnexinV-FITC from BDBiosciences was used, as recommended by the manufacturer with the specification that the reaction volumes were decreased. Incubation was done in dark, at room temperature for 30 minutes, after activation for 10 minutes of platelets with agonist (like 1 μg/ml TRAP, 100 nM PMA or 20 μM ADP as final concentrations).
Cell preparation and pictures were done at the Microscopy Core Facility Cleveland Clinic. Cells were grown for 4 days with DMAT 10 μM and then collected by differential centrifugation. […]
A general note: A flow cytometer gives signals particle by particle.

In experiment [2] the test system is αIIbβ3 integrin expression on MEG-01 cells. The experiment in a line: RPE-CD41a flow cytometric immunophenotyping (maturation). It counts as cell-based, human. The text has this:
CD41a is the antigen for αIIbβ3 complex and it is found on platelets and platelet precursors, including MEG-1 cell line (Ogura et al., 1985; Zunino et al., 2001). It acts as a receptor for fibrinogen, von Willebrand factor, fibronectin, and vitronectin, and it mediates platelet adhesion and aggregation. αIIbβ3 complex is a marker of differentiation for megakaryocytes (as an increase in the fluorescence of stained cells corresponds to more αIIbβ3 receptor expression and differentiation towards platelets production) and it is simply a marker for the platelets. CD41a is conjugated with R-Phytocoerthrin (RPE), in order to be used in flow cytometry experiments. The staining protocol provided by BD Biosciences was followed. Briefly, cells were washed and resuspended in 1×PBS with 0.1% FBS, 0.01% NaN3, and 0.22 μm filtered buffer. Cells were counted and adjusted to be 10^6 cells/ml and 20 μl of RPE-CD41a was used for 180 μl cell suspension.
RPE conjugated stained cells were collected on FL2H channel and gating on populations was done on FSC and SSC logarithmic modes. […]
Regarding FIGS. 16-20, maturation (differentiation) of MEG-01 cells is described. […] Control untreated unstained—plot A, control untreated stained—plot B, 10 μM DMAT—plot C, 25 μM TBB—plot D, 1 nM PMA treatments—plot E. FIG. 18 represents total percentage relative fluorescence for RPE-CD41a immunophenotyping. […]

[3] abbreviates: platelets from 10 μM treatment, agonist TRAP.

`CN(C)c1nc2c(Br)c(Br)c(Br)c(Br)c2[nH]1` [DMAT, 2-dimethylamino-4,5,6,7-tetrabromo-1H-benzimidazole]: in experiment [1] (agonists: human thrombin, TRAP, ADP, PMA), the platelet shape change result is “capable of undergoing shape change in response to agonists”. In experiment [1] (platelets from 10 μM treatment, activated with 0.5 U/ml thrombin), the “clot formation by platelets” value is listed as “form a fibrin clot”. Besides, in experiment [1] (setting [3]), the “P-Selectin exposure of activated platelets” value is “expose P-Selectin”, the “PAC-1 staining of activated platelets” value was “stain positive for PAC-1” and the “fibrinogen binding of activated platelets” value was “bind fibrinogen”. The “function of platelets obtained in culture” value in experiment [1] is recorded as “functional”. In experiment [2] (10 μM), the “maturation level (RPE-CD41a, αIIbβ3 expression)” value was “very significant maturation levels versus control untreated”. Further, the “maturation level (RPE-CD41a, αIIbβ3 expression)” value in experiment [2] (20 μM, compared with 10 μM) is listed as “slight increase in the maturation level”.
`Brc1c(Br)c(Br)c2[nH]nnc2c1Br` [TBB, 4,5,6,7-tetrabromobenzotriazole]: the “function of platelets obtained in culture” value in experiment [1] is “functional”.

Values taken from patent publication US20100048657A1, “CONTROL OF MALIGNANT CELLS PROLIFERATION THROUGH THE INHIBITION OF CASEIN KINASE 2” (CLEVELAND STATE UNIVERSITY, priority 2006, published 2010).
